Experiments:
Type in all cases: functional
[1] = system: Micrococcus luteus; test: Minimum inhibitory concentration required for the inhibition of Micrococcus luteus
[2] = system: Vibrio alginolyticus; test: Minimum inhibitory concentration required for the inhibition of Vibrio alginolyticus
[3] = system: Fusarium oxysporum; test: Minimum inhibitory concentration required for the inhibition of Fusarium oxysporum

SMILES	MIC [1] [µg/mL]	MIC [2] [µg/mL]	MIC [3] [µg/mL]
CCCCCCCCCCCCCCCCCCCCCCCCCCCCCC(=O)OC[C@@H]1OC(OCCC[N+](C)(C)C)[C@@H](O)[C@@H](O)[C@@H]1O.[I-] (some centres undefined)	1000	2000	–
CCCCCCCCCCCCCCCCCCCCCCCCCC(=O)OC[C@@H]1OC(OCCC[N+](C)(C)C)[C@@H](O)[C@@H](O)[C@@H]1O.[I-] (some centres undefined)	50	2000	–
CCCCCCCCCCCCCCCCCCCCCC(=O)OC[C@@H]1OC(OCCC[N+](C)(C)C)[C@@H](O)[C@@H](O)[C@@H]1O.[I-] (some centres undefined)	10	500	500
CCCCCCCCCCCCCCCCCC(=O)OC[C@@H]1OC(OCCC[N+](C)(C)C)[C@@H](O)[C@@H](O)[C@@H]1O.[I-] (some centres undefined)	2000	2000	–

— ChEMBL document CHEMBL1130463, “Chemoenzymatic synthesis and characterization of a new type of carbohydrate-based cationic antimicrobial agents” (1997)
